Measurements taken from patent publication US20090186832A1 (priority 2008, published 2009).
Values joined by “and” are separate entries in the source; they are usually repeats but may differ in a detail not shown here. Equal entries are not always repeated. Structures can show the parent of a compound that is named as a salt. Where two headings read alike, the source gives them in different places. Marks after values point to notes of the source that are not given here.

Key:
[1] = for Meptazinol T>50% Cmax: analyte meptazinol, oral 1 mg meptazinol free base equivalents/kg
[2] = dog, in vivo
[3] = for Simulated gastric fluid (pH 1.1): % remaining after 2 h/37° C. / Simulated intestinal fluid (pH 6.8): % remaining after 2 h/37° C.: simulated gi fluid
[4] = dog, in vivo; for Cmax (mean ng/mL ± SD) / AUC (mean ngh/mL ± SD): po
[5] = plasma meptazinol, oral 1 mg meptazinol free base/kg, group 1 dogs (G1)

## CCC1(c2cccc(OC(=O)NC(C)C(=O)NC(C)C(=O)O)c2)CCCCN(C)C1.O=C(O)C(F)(F)F (mixture of isomers) [Meptazinol ala-ala dipeptide TFA salt]
[1]; [5]
  AUC (mean ngh/mL ± SD): 11.4 ± 2.9 ngh/mL
  Cmax (mean ng/mL ± SD): 2.73 ± 1.28 ng/mL

## CCC1(c2cccc(OC(=O)NC(C)C(=O)O)c2)CCCCN(C)C1.Cl (mixture of isomers) [Meptazinol alanine carbamate HCl salt]
[1]; dog, in vivo
  Mean relative bioavailability %: 116%
[1]; dog, in vivo, po
  AUC (mean ngh/mL ± SD): 16.3 ± 3.6
  Cmax (mean ng/mL ± SD): 5.2 ± 1.59 ng/mL

## CCC1(c2cccc(OC(=O)NC(CC(=O)O)C(=O)O)c2)CCCCN(C)C1.O=C(O)C(F)(F)F (mixture of isomers) [Meptazinol apartic acid carbamate TFA salt]
[1]; dog, in vivo
  Mean relative bioavailability %: 273%
[1]; dog, in vivo, po
  AUC (mean ngh/mL ± SD), *AUC0-t: 34.8* ± 1.0
  Cmax (mean ng/mL ± SD): 2.65 ± 0.34 ng/mL

## CCC1(c2cccc(OC(=O)NC(CC(C)C)C(=O)O)c2)CCCCN(C)C1.O=C(O)C(F)(F)F (mixture of isomers) [Meptazinol leucine carbamate TFA salt]
[1]; dog, in vivo
  Mean relative bioavailability %: 70%
[1]; dog, in vivo, po
  AUC (mean ngh/mL ± SD): 9.27 ± 1.6
  Cmax (mean ng/mL ± SD): 3.32 ± 1.4 ng/mL

## CCC1(c2cccc(OC(=O)NC(Cc3c[nH]c4ccccc34)C(=O)O)c2)CCCCN(C)C1.O=C(O)C(F)(F)F (mixture of isomers) [Meptazinol tryptophan carbamate TFA salt]
[1]; dog, in vivo
  Mean relative bioavailability %: 149%
[1]; dog, in vivo, po
  AUC (mean ngh/mL ± SD), *AUC0-t: 19.1* ± 8.9
  Cmax (mean ng/mL ± SD): 8.21 ± 2.56 ng/mL

## CCC1(c2cccc(OC(=O)NC(Cc3ccc(O)cc3)C(=O)O)c2)CCCCN(C)C1.O=C(O)C(F)(F)F (mixture of isomers) [Meptazinol tyrosine carbamate TFA salt]
[1]; dog, in vivo
  Mean relative bioavailability %: 52%
[1]; dog, in vivo, po
  AUC (mean ngh/mL ± SD), *AUC0-t: 6.61* ± 0.70
  Cmax (mean ng/mL ± SD): 2.23 ± 0.16 ng/mL

## CCC1(c2cccc(OC(=O)NC(C(=O)OC)C(C)C)c2)CCCCN(C)C1.Cl (mixture of isomers) [Meptazinol valine carbamate methyl ester HCl]
[1]; dog, in vivo
  Mean relative bioavailability %: 606%
[1]; dog, in vivo, po
  AUC (mean ngh/mL ± SD): 78.1 ± 17.1
  Cmax (mean ng/mL ± SD): 44.8 ± 8.2 ng/mL

## CCC1(c2cccc(OC(=O)NCC(=O)O)c2)CCCCN(C)C1.O=C(O)C(F)(F)F (racemic) [Meptazinol glycine carbamate TFA salt]
[1]; dog, in vivo
  Mean relative bioavailability %: 79%
[1]; dog, in vivo, po
  AUC (mean ngh/mL ± SD), *AUC0-t: 10.2* ± 3.4
  Cmax (mean ng/mL ± SD): 2.51 ± 0.90 ng/mL

## CCC(C)[C@@H](NC(=O)Oc1ccc2c3c1OC1[C@@]4(OC)CC[C@@]5(C[C@@H]4[C@@](C)(O)C(C)(C)C)[C@@H](C2)N(CC2CC2)CC[C@]315)C(=O)O (some centres unmarked) [Buprenorphine isoleucine carbamate]
[2]; beagle, po
  Cmax (mean ng/mL ± SD): 1.25 ± 0.51 ng/mL
  Mean relative bioavailability %: 110%
[2]
  AUC (mean ngh/mL ± SD): 13.6 ± 3.9

## COC12CCC3(CC1C(C)(O)C(C)(C)C)C1Cc4ccc(OC(=O)NC(CCCCN)C(=O)O)c5c4C3(CCN1CC1CC1)C2O5 (centres unmarked) [Buprenorphine lysine carbamate]
[2]
  AUC (mean ngh/mL ± SD): 4.70
  Cmax (mean ng/mL ± SD): 0.25 ± 0.19 ng/mL
  Mean relative bioavailability %: 38%

## COC12CCC3(CC1C(C)(O)C(C)(C)C)C1Cc4ccc(OC(=O)NC(CC(=O)O)C(=O)O)c5c4C3(CCN1CC1CC1)C2O5 (centres unmarked) [Buprenorphine-Asp-Carbamate]
[3]
  pH 10.0 buffer: % remaining after 2 h/20° C.: 85%
  Distilled water (pH 5.9): % remaining after 2h/20° C.: 100%
  Simulated gastric fluid (pH 1.1): % remaining after 2 h/37° C.: 100%
  Simulated intestinal fluid (pH 6.8): % remaining after 2 h/37° C.: 99%

## CCC(C)[C@H](NC(=O)Oc1cccc(C2(CC)CCCCN(C)C2)c1)C(=O)O (some centres unmarked) [Meptazinol isoleucine carbamate TFA salt]
[1]; [5]
  AUC (mean ngh/mL ± SD): 34.9 ± 11 ngh/mL

## CCC1(c2cccc(OC(=O)N[C@H](C(=O)N[C@@H](C)C(=O)O)C(C)C)c2)CCCCN(C)C1 (some centres unmarked) [Meptazinol val-ala dipeptide TFA salt]
[1]; [5]
  AUC (mean ngh/mL ± SD): 36.5 ± 13 ngh/mL

## CCC1(c2cccc(OC(=O)N[C@H](C(=O)NCC(=O)O)C(C)C)c2)CCCCN(C)C1 (some centres unmarked) [Meptazinol val-gly dipeptide TFA salt]
[1]; [5]
  AUC (mean ngh/mL ± SD): 39.9 ± 17 ngh/mL

## CCC1(c2cccc(OC(=O)N[C@H](C(=O)N[C@H](C(=O)O)C(C)C)C(C)C)c2)CCCCN(C)C1 (stereo partly drawn) [Meptazinol val-val dipeptide TFA salt, meptazinol-(S)-valine-(S)-valine carbamate trifluoroacetate]
[1]; [5]
  AUC (mean ngh/mL ± SD): 45.0 ± 12 ngh/mL

## CCC1(c2cccc(OC(=O)N[C@H](C(=O)O)C(C)C)c2)CCCCN(C)C1 (some centres unmarked) [Meptazinol valine carbamate HCl, 2-[3-(3-Ethyl-1-methyl-azepin-3-yl)-phenoxycarbonylamino]-3-methyl-butyric acid hydrochloride]
[1]; individual dogs 1-5, hydrochloride
  Meptazinol T>50% Cmax: 0.5 h (3×) and 1.5 h (2×)
[1]; median value
  Meptazinol T>50% Cmax: 0.5^a h
[1]; plasma meptazinol, oral 1 mg meptazinol free base/kg, group 2 dogs (G2), hydrochloride
  AUC (mean ngh/mL ± SD): 67.6 ± 9.2 ngh/mL

## CCC1(c2cccc(OC(=O)N[C@H](C(=O)O)C(C)C)c2)CCCCN(C)C1 (stereo partly drawn) [Meptazinol valine carbamate TFA salt, meptazinol-(S)-valine carbamate trifluoroacetate]
[1]; [5]
  AUC (mean ngh/mL ± SD): 67.7 ± 25 ngh/mL

## CCC1(c2cccc(OC(=O)N[C@H](C(=O)O)C(C)C)c2)CCCCN(C)C1 (some centres unmarked) [Meptazinol valine carbamate camsylate]
[1]; [5]
  AUC (mean ngh/mL ± SD): 62.4 ± 20.4 ngh/mL

## CCC1(c2cccc(OC(=O)N[C@H](C(=O)O)C(C)C)c2)CCCCN(C)C1 (some centres unmarked) [Meptazinol valine carbamate zwitterion]
[1]; plasma meptazinol, oral 1 mg meptazinol free base/kg, group 2 dogs (G2)
  AUC (mean ngh/mL ± SD): 84.9 ± 40.6 ngh/mL

## CCC1(c2cccc(OC(=O)N[C@H](C(=O)O)C(C)C)c2)CCCCN(C)C1 (some centres unmarked) [Meptazinol-Val-Carbamate]
[3]
  pH 10.0 buffer: % remaining after 2 h/20° C.: 66%

## CN1CC[C@]23c4c5ccc(O)c4O[C@H]2C(=O)CC[C@@]3(O)[C@H]1C5 [Oxymorphone HCl, reference compound]
[4]; Beagle, 0.5 mg/kg
  Cmax (mean ng/mL ± SD): 3.8 ± 0.77 ng/mL
[4]
  AUC (mean ngh/mL ± SD): 12.2 ± 1.6

## CN1CC[C@]23c4c5ccc(OC(=O)NCC(=O)O)c4O[C@H]2C(=O)CC[C@@]3(O)[C@H]1C5.O=C(O)C(F)(F)F [Oxymorphone glycine carbamate TFA]
[4]
  Mean relative bioavailability %: 554%
  AUC (mean ngh/mL ± SD): 67.9 ± 34.1
  Cmax (mean ng/mL ± SD): 21 ± 10.9 ng/mL

## CSCC[C@@H](NC(=O)Oc1ccc2c3c1OC1C(=O)CC[C@@]4(O)[C@@H](C2)N(C)CC[C@]314)C(=O)O (some centres unmarked) [Oxymorphone methionine carbamate TFA]
[4]; Beagle, 0.5 mg/kg
  Mean relative bioavailability %: 436%
  Cmax (mean ng/mL ± SD): 13.8 ± 4.6 ng/mL
[4]
  AUC (mean ngh/mL ± SD): 55.4 ± 15.2

## CN1CC[C@]23c4c5ccc(OC(=O)N[C@@H](Cc6ccccc6)C(=O)O)c4O[C@H]2C(=O)CC[C@@]3(O)[C@H]1C5.Cl [Oxymorphone phenylalanine carbamate HCl]
[4]
  Mean relative bioavailability %: 244%
  AUC (mean ngh/mL ± SD): 29.5 ± 2.2
  Cmax (mean ng/mL ± SD): 5.45 ± 1.32 ng/mL

## CN1CC[C@]23c4c5ccc(OC(=O)N[C@@H](Cc6ccc(O)cc6)C(=O)O)c4O[C@H]2C(=O)CC[C@@]3(O)[C@H]1C5.O=C(O)C(F)(F)F [Oxymorphone tyrosine carbamate TFA]
[4]
  Mean relative bioavailability %: 157%
  AUC (mean ngh/mL ± SD): 17.3 ± 3.0
  Cmax (mean ng/mL ± SD): 4.62 ± 1.12 ng/mL

## CSCC[C@@H](NC(=O)Oc1ccc2c3c1OC1C(=O)CC[C@@]4(O)[C@@H](C2)N(C)CC[C@]314)C(=O)O (some centres unmarked) [Oxymorphone-Methio-Carbamate]
[3]
  pH 10.0 buffer: % remaining after 2 h/20° C.: 8%
  Distilled water (pH 5.9): % remaining after 2h/20° C.: 100%
  Simulated gastric fluid (pH 1.1): % remaining after 2 h/37° C.: 100%
  Simulated intestinal fluid (pH 6.8): % remaining after 2 h/37° C.: 96%

## CN1CC[C@]23c4c5ccc(OC(=O)N[C@@H](Cc6ccccc6)C(=O)O)c4O[C@H]2C(=O)CC[C@@]3(O)[C@H]1C5 [Oxymorphone-Phe-Carbamate]
[3]
  pH 10.0 buffer: % remaining after 2 h/20° C.: 17%
  Distilled water (pH 5.9): % remaining after 2h/20° C.: 100%
  Simulated gastric fluid (pH 1.1): % remaining after 2 h/37° C.: 100%
  Simulated intestinal fluid (pH 6.8): % remaining after 2 h/37° C.: 82%

## Oxymorphone isoleucine carbamate TFA
[4]
  Mean relative bioavailability %: 570%
  AUC (mean ngh/mL ± SD): 65.8 ± 32
  Cmax (mean ng/mL ± SD): 17.2 ± 9.9 ng/mL

## Oxymorphone valine carbamate TFA
[4]
  Mean relative bioavailability %: 816%
  AUC (mean ngh/mL ± SD): 51.2 ± 35
  Cmax (mean ng/mL ± SD): 14.6 ± 8.69 ng/mL

## Oxymorphone-Isoleu-Carbamate
[3]
  pH 10.0 buffer: % remaining after 2 h/20° C.: 36%
  Distilled water (pH 5.9): % remaining after 2h/20° C.: 100%
  Simulated gastric fluid (pH 1.1): % remaining after 2 h/37° C.: 100%
  Simulated intestinal fluid (pH 6.8): % remaining after 2 h/37° C.: 97%

## Oxymorphone-Val-Carbamate
[3]
  pH 10.0 buffer: % remaining after 2 h/20° C.: 32%
  Distilled water (pH 5.9): % remaining after 2h/20° C.: 100%
  Simulated gastric fluid (pH 1.1): % remaining after 2 h/37° C.: 100%
  Simulated intestinal fluid (pH 6.8): % remaining after 2 h/37° C.: 97%
